In patent US8222279B2, “Small molecule insulin mimetics absent quinones” (Duke University, priority 2006, dated 2012):

Tests used:
human insulin receptor = target: T1, human insulin receptor (Homo sapiens, UniProt P06213); assay: Insulin receptor autophosphorylation (phosphotyrosines 1162/1163) immunoblot in CHO-IR cells; format: cell-based; details: increasing concentrations, 10 min at 37° C., immunoblot not shown
T1 construct: expressed in transfected cells; host or cells: CHO-IR (Chinese hamster ovary cells)
Text: These compounds were examined in a cell-based assay for their ability to mimic the action of insulin. In this case, Chinese hamster ovary (CHO) cells stably transfected with a gene for human insulin receptor and expressing it on their surface were used. CHO-IR cells were stimulated with increasing concentrations of insulin, LDIV122 (same as 198), LDIV148 (same as 196), ZL-196 (an insulin mimic that includes a quinone), and LDIV99 (same as 194). Whole-cell lysates were immunoblotted with antibodies to phosphotyrosines 1162 and 1163 that lie on the activation loop in the beta-subunit of the insulin receptor.
Materials. Antibodies to tyrosine phosphorylated IR(Tyr1162/Tyr1163) are from BioSource (Camarillo, Calif.).
CHO-IR cells (Chinese hamster ovary cells overexpressing the β isoform insulin receptor) were cultured in Ham's F12 supplemented with 10% FCS, 2 mM glutamax and gentamicin at 37° C. in a 5% CO2 atmosphere. Cells were serum starved for 72 h in 12-well plates, then stimulated with increasing concentrations of insulin or compounds in KRP-Hepes for 10 min at 37° C. The cells are washed with ice-cold phosphate-buffered saline and solubilized in 2×SDS-sample buffer (50 mM Tris-HCl, pH 7.4, 5% glycerol, 2% SDS, 0.005% bromophenol blue) containing 2 mM sodium orthovanadate and 200 mM sodium fluoride. […]

[1] = tested on: differentiated PC12 neurons; assay: Protection of differentiated PC12 neurons from apoptotic cell death induced by NGF withdrawal; format: cell-based; details: 100 ng/ml NGF; 48 h; control cells 64±1%
Method: A library of asterriquinones was screened using a 96-well ELISA assay that detects phosphorylated TrkA, the NGF receptor. We identified many compounds from this library that activated TrkA in CHO cells. The library was also screened for dose-dependent cytotoxicity in these cells. From these assays, we selected two compounds 1H5 and 5E5 for further study based on NGF agonist activity and low toxicity. […] 1H5 at 30 μM has 49±4% the effect of 100 ng/ml NGF. […] Despite this, 1H5 can protect differentiated PC12 neurons from apoptotic cell death induced by NGF withdrawal for 48 h. Cell death is 64±1% in control PC12 cells, 52±3% in cell treated with 30 μM 1H5, and 18±6% in cells treated with 100 ng/ml NGF. […] 5E5 at 30 μM has 212±11% the effect of 100 ng/ml NGF on CHO-Trk cells. It is non-toxic at concentrations up to 10 μM. […] 5E5 also causes phosphorylation of FRS2/SNT, a differentiation-specific target of NGF in neurons and PC12 cells (2.7-fold v.s. NGF).

T1 sequence (P06213 763-1382 limits assumed): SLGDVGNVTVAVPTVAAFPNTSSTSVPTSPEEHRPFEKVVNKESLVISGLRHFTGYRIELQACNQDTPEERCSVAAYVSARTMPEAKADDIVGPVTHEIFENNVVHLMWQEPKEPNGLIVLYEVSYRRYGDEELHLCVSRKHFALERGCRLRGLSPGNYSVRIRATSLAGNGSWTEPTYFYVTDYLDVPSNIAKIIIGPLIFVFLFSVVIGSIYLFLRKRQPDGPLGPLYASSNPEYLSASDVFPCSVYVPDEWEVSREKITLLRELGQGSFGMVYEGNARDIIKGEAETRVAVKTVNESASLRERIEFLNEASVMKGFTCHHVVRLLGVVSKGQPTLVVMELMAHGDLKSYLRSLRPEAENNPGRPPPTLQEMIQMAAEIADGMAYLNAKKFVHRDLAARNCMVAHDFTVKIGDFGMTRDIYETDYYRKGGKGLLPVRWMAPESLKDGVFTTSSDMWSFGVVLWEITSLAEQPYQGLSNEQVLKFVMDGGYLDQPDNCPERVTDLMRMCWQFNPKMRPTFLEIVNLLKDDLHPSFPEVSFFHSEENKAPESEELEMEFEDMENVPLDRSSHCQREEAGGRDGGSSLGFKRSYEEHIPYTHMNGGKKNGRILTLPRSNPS
T1 sequence (P06213 28-758 partner limits assumed): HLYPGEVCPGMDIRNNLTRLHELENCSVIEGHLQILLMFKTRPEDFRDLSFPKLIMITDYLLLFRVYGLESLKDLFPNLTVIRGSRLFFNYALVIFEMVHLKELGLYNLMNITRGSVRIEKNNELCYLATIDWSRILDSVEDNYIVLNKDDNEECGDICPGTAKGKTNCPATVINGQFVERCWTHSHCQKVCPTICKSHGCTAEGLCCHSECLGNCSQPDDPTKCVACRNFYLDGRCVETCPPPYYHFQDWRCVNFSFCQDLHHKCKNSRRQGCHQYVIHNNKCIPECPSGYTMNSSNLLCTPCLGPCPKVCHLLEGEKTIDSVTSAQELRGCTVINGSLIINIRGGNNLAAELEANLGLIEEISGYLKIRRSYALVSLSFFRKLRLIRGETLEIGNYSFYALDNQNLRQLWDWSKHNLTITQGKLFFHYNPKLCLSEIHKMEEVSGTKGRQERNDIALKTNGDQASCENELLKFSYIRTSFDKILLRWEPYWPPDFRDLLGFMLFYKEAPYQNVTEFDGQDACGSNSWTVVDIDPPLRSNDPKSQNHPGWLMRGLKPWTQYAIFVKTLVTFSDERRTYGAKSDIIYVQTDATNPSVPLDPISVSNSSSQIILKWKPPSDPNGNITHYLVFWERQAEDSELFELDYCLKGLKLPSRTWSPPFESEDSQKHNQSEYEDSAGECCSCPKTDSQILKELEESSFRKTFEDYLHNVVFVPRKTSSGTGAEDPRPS

| Molecule | Autophosphorylation of the insulin receptor (human insulin receptor) | Cell death [1] [%] |
| --- | --- | --- |
| CC(C)=CCc1cccc2c(-c3oc(CO)cc(=O)c3O)c[nH]c12 [LDIV99, 3-Hydroxy-6-hydroxymethyl-2-[7-(3-methyl-but-2-enyl)-1H-indol-3-yl]-pyran-4-one] | dose-dependent autophosphorylation |  |
| NGF: nerve growth factor, ligand of TrkA, used as reference at 100 ng/ml |  | 18±6 |
| CC(C)=CCc1cccc2c(-c3c(O)c(=O)cc(CO)n3C)c[nH]c12 [LDIV148, 3-Hydroxy-6-hydroxymethyl-1-methyl-2-[7-(3-methyl-but-2-enyl)-1H-indol-3-yl]-pyridin-4-one] | dose-dependent autophosphorylation |  |
